Data from patent US20230130403A1, “METHODS OF TREATMENT WITH S1P RECEPTOR MODULATORS” (PRIOTHERA SAS, priority 2021, published 2023).

Experiments:
[1] = system: lymphocyte counts in peripheral blood; test: Reduction of lymphocyte counts in peripheral blood; conditions: in vivo
Description: KRP203 reduces lymphocyte counts in peripheral blood by more than 80%.

[2] = rat, in vivo
dogs = test: Repeat-dose toxicity studies in dogs; type: in vivo
Description: (§1) Transitory activation of phagocytic cells and increased secretion of soluble markers by these cells is considered a main contributing factor to smooth muscle hypertrophy/hyperplasia.

rats and rabbits = test: Reproductive toxicity studies in rats and rabbits; type: in vivo
[3] = system: peripheral lymphocyte counts; test: Recovery of absolute lymphocyte counts after S1P modulator dosing in healthy volunteers; type: in vivo, human; conditions: single 1 mg FTY720, BAF312 multiple doses for 28 days, single 3 mg KRP203
Protocol: Mocravimod is particularly preferred. […] A measurable parameter that determines maintenance of the mode of action, i.e., sequestering of lymphocytes in secondary lymphoid organs and bone marrow, is reduction of peripheral lymphocyte counts. Recovery of absolute lymphocyte counts to 80% of normal counts after a single 1 mg dose of FTY720, multiple dose applications of BAF312 for 28 days, or a single 3 mg dose of KRP203 was reached after 8, 7 and more than 10 days, respectively.

QT prolongation = QT prolongation in anaesthetized guinea pigs; type: in vivo, guinea pig
Description: Based on the available in vitro and in vivo data, except for the potential to cause a negative chronotropic effect and some mild increase in blood pressure, there is no indication that KRP203 would cause arrhythmia or QT prolongation in man.

[4] = Repeat-dose toxicity studies in mice; conditions: in vivo; 13-week mouse study, 20 mg/kg; read-out: systemic exposure (AUC0-24 h)
Protocol: (§2) The kidney was a target organ of toxicity in mice only and only in a 2-week study at doses ≥45 mg/kg.
(§3) Kidney impairment was most likely the primary cause of death/moribundity seen in this study.

mice [5] = test: Repeat-dose toxicity studies in mice; conditions: mouse, in vivo
Protocol: as §2, §3

[6] = system: healthy volunteers and patients (ulcerative colitis, subacute cutaneous lupus erythematosus, Crohn's disease); test: Placebo-controlled clinical trials of KRP203 in healthy volunteers and patients; type: in vivo, human
Protocol: The clinical experience with mocravimod includes single doses up to 40 mg in healthy volunteers and multiple doses up to 3 mg/day in healthy volunteers and patients. […] In the phase […] study, mocravimod was administered for up to around 3 months in patients with several different hematologic malignancies receiving allogeneic HSCT. […] However, patient numbers were low and efficacy results warrant more data in a more homogeneous patient population. To gather more data on both doses, this phase IIb study will investigate mocravimod at two different dose levels, a daily dose of 1 mg as well as of 3 mg.

mice [7] = test: Acute toxicity in mice; type: in vivo
[8] = system: human cytochrome P450 isoenzymes; test: Inhibition of cytochrome P450 isoenzymes in vitro; type: in vitro ADME
Protocol: The in vivo ratio of phosphorylated KRP203 to KRP203 in plasma was up to 45 in rat. As the metabolic activities on KRP203 in human blood and hepatocytes were lower than those of other species, the metabolic clearance of KRP203 in man is expected be lower than that in rat and dog. […] KRP230 formed low amounts of covalent drug-protein adducts in human hepatocytes in vitro. Due to the low levels detected ([…] at 3 hours) in-vitro adduct formation is unlikely to be associated with clinical relevant findings at low dose levels (e.g. below 10 mg).
The weak inhibitory effect of ciclosporin on hepatic CYP3A4 is unlikely to relevantly impact the PK of KRP203.

liver = test: Genomic profiling of the liver in a 2-week exploratory toxicity study in rats; type: in vivo, rat
rats = test: Repeat-dose toxicity studies in rats; type: in vivo
Description: as §1

[9] = system: patients undergoing allogeneic HSCT for hematological malignancies; test: Study CKRP203A2105, phase Ib in patients undergoing allogeneic HSCT;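 also: counts of subjects, HLA-matched donor stem cells, transplant on Day 11 following myeloablative chemotherapy conditioning from Day 2 to Day 10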
Description: The study population comprised of male or female subjects who were diagnosed with a hematological malignancy and qualified for a standard allogeneic HSCT where HLA matched stem cell source was available. Such malignancies included but were not limited to acute myeloid leukemia (AML), acute lymphoid leukemia (ALL), myelodysplastic syndrome (MDS, chronic lymphoid leukemia (CLL), marginal zone and follicular lymphomas, large-cell lymphoma, lymphoblastic, Burkitt's and other high grade lymphomas; mantle-cell lymphoma, lymphoplasmacytic lymphoma; prolymphocytic leukemia or multiple myeloma.
HSCT was performed on Day 11. In addition to the investigational treatment with KRP203, the activities included conditioning, standard GvHD prophylaxis, infusion of the stem cells, pre and post-transplant supportive care and follow-up assessments according to the institutional practices. Subjects remained hospitalized for two to five days after bone marrow engraftment occurred. The subsequent study visits were ambulatory or in-house, if needed depending on the health status of the subject.
Myeloablative conditioning was performed between Day 2 and Day 10 as per SOC using chemotherapy.
As in Part 1, HSCT was performed on Day 11, all other procedures/visits were same as in Part 1.

rabbit skin = test: Skin irritation; type: in vivo
[10] = Part 1, 3 mg KRP203+CsA, n=10, after 30 days of transplant
[11] = Part 1, 3 mg KRP203+CsA, n=10, from transplant up to 30 days of transplant
[12] = Part 1, 3 mg KRP203+CsA, n=10, start of treatment until just before transplant
[13] = Part 1, after 30 days of transplantation
[14] = Part 1, start of treatment until just before transplant
[15] = Part 2, 1 mg KRP203+CsA arm, from transplant up to 30 days after transplant
[16] = Part 2, after 30 days of transplantation
[17] = Part 2, following 30 days after transplant

NC(CO)(CO)CCc1ccc(Sc2cccc(OCc3ccccc3)c2)cc1Cl [KRP203, 2-amino-2-[4-(3-benzyloxyphenylthio)-2-chlorophenyl] ethyl-propane-1,3-diol]
reduction of lymphocyte counts in peripheral blood [1]: more than 80%
increase of exposure at the end of the 13-week treatment compared to single dose ([2]; both, 13 weeks): 2-5 fold
proportionality between exposure and dose [2]: apparent proportionality between exposure and dose
gastro-intestinal findings (dogs; 26- and 52-week dog toxicity studies): gastro-intestinal tract disturbance with soft/mucoid stools and diarrhea occurred in males only at the high dose level
no mortality up to daily dose (dogs; dogs, up to 52-week): ≤ 15 mg/kg
no effects on male fertility up to highest dose (rats and rabbits; in vivo): ≤ 20 mg/kg
NOAEL for embryo lethality and malformations (rats and rabbits; rat study): no NOAEL
reproductive toxicity (rats and rabbits; rats and rabbits): teratogenic potential and effects on the reproductive tract, resulting in embryo lethality and malformations at low doses
Recovery of absolute lymphocyte counts to 80% of normal counts [3]: more than 10 days
QT prolongation (QT prolongation): No indication for QT prolongation
AUC0-24 [4]: ~7250 ng·h/mL
doses with kidney toxicity (mice [5]; both, 2 weeks): ≥ 45 mg/kg
doses with mortality (mice [5]; both, 2 weeks): ≥ 45 mg/kg/day
no kidney changes up to highest dose level (mice [5]; 13 weeks): ≤ 20 mg/kg
tolerability [6]: well tolerated
intravenous dose producing lethality (mice [7]): above 50 mg/kg
effect on cytochromes P450 enzymes and transporters [8]: lack of effect
potential in inhibiting the activity of human cytochrome P450 isoenzymes ([8]; in vitro tests): did not show relevant potential
hepatotoxicity-related changes in genomic profiling of the liver (liver): did not indicate any hepatotoxicity-related changes
local tolerability in the gastro-intestinal tract (rats; oral dosing in rats or dogs up to 26 or 13 weeks): no indication for impaired local tolerability
hepatic effects (rats; rats and mice, not in dogs): mild and did only occur at high dose levels
no mortality up to daily dose (rats; rats, up to 26-week): ≤ 50 mg/kg
subjects with AEs that resulted in discontinuation of study drug ([9]; 1 mg KRP203+CsA arm): 33%
safety profile between dose groups ([9]; 1 mg/day plus CsA or 3 mg/day plus CsA or TAC): comparable between the 1 mg and 3 mg mocravimod dose groups
subjects with AEs that resulted in discontinuation of study drug ([9]; 3 mg KRP203+CsA arm): 29%
subjects with AEs that resulted in discontinuation of study drug ([9]; 3 mg KRP203+Tac arm): 14%
subjects with AEs, SOC general disorders and administration site conditions [9, 10]: 60%
subjects with AEs, SOC immune system disorders [9, 10]: 100%
subjects with AEs, SOC infection and infestations [9, 10]: 50%
subjects with acute GvHD in intestine [9, 10]: 30%
subjects with acute GvHD in skin [9, 10]: 30%
subjects with chronic GvHD [9, 10]: 70%
subjects with chronic GvHD in intestine [9, 10]: 20%
subjects with chronic GvHD in liver [9, 10]: 50%
subjects with chronic GvHD in skin [9, 10]: 30%
subjects with diarrhea [9, 10]: 20%
subjects with edema peripheral [9, 10]: 40%
subjects with edema peripheral suspected related to study treatment [9, 10]: 20%
subjects with eyelid edema [9, 10]: 20%
subjects with nausea [9, 10]: 20%
subjects with rash [9, 10]: 20%
subjects with AEs, SOC gastrointestinal disorder [9, 11]: 70%
subjects with AEs, SOC immune system disorders [9, 11]: 30%
subjects with AEs, SOC nervous system disorders [9, 11]: 30%
subjects with AEs, SOC respiratory, thoracic and mediastinal disorders [9, 11]: 40%
subjects with AEs, SOC vascular disorders [9, 11]: 30%
subjects with acute GvHD in intestine [9, 11]: 30%
subjects with capillary leak syndrome (suspected related to study treatment) [9, 11]: 20%
subjects with nausea [9, 11]: 20%
subjects with pleural effusion (suspected related to study treatment) [9, 11]: 20%
subjects with vomiting [9, 11]: 60%
subjects with AEs, SOC gastrointestinal disorders [9, 12]: 60%
subjects with bradycardia [9, 12]: 20%
subjects with bradycardia suspected related to study treatment [9, 12]: 20%
subjects with hypertension suspected related to study treatment [9, 12]: 10%
subjects with nausea [9, 12]: 20%
subjects with sinus arrest suspected related to study treatment [9, 12]: 10%
subjects with vomiting [9, 12]: 40%
subjects reporting AEs ([9]; Part 1, after 30 days of study treatment): all subjects
subjects with serious AEs suspected related (cystoid macular edema, dyspnea exertional, edema peripheral) ([9]; Part 1, after 30 days of transplant, mild severities): 10%
subjects with SAEs [9, 13]: 40%
subjects with SAEs, general disorders and administration site conditions [9, 13]: 30%
subjects with SAEs, infections and infestations [9, 13]: 20%
subjects with SAEs, neoplasms benign, malignant and unspecified [9, 13]: 20%
subjects with serious AEs (acute GvHD, dyspnea and weight increased) ([9]; Part 1, from transplant up to 30 days after the transplant): 20%
subjects reporting AEs [9, 14]: seven subjects
subjects with serious AE of vomiting [9, 14]: 10%
subjects reporting AEs ([9]; Part 1, up to 30 days of transplant): nine subjects
subjects with serious AEs of blepharitis and cystoid macular edema [9, 15]: 10%
subjects with serious AEs suspected related (blepharitis Grade 2, cystoid macular edema Grade 3) [9, 15]: 17%
subjects with at least one AE ([9]; Part 2, both treatment arms (n=13), in each of the three periods): 100%
subjects with serious AE acute GvHD in intestine [9, 16]: 23%
subjects with serious AE diarrhea [9, 16]: 15%
subjects with serious AE general physical health deterioration [9, 16]: 15%
incidence each of febrile bone marrow aplasia, hepatic failure, Hodgkin's disease, macular ischemia and retinal ischemia (related SAEs) [9, 17]: 8%
subjects with serious AEs suspected related to study treatment [9, 17]: 31%
serious AEs ([9]; Part 2, start of treatment until just before transplant): No serious AE
study discontinuation due to AEs ([9]; all 23 treated subjects): 13%
study discontinuation due to death ([9]; all 23 treated subjects): 9%
deaths reported ([9]; overall, during the study, one-year and long-term follow-up period): seven
skin irritation (rabbit skin): not irritating
